From ChEMBL document CHEMBL3217485, “Understanding and overcoming aminoglycoside resistance caused by N-6'-acetyltransferase” (Medchemcomm, 2012)
Converted amounts (≈) assume the structure as drawn. Each block holds one compound with its values, some of them ahead of it. The source made the active and inactive calls. The rule behind the calls is not given here. Where a SMILES comes first, the peptide text is derived from it.

Tests used:
[1] = Activity at AAC(6')-li (unknown origin)
[2] = system: Escherichia coli; assay: Antibacterial activity against Escherichia coli ATCC 25922; format: functional
[3] = Binding affinity to biotinylated Escherichia coli 16S rRNA A-site
[4] = Ratio of Kcat to Km for AAC(6')-li (unknown origin)
[5] = target: Aac(6')-Ii protein (Enterococcus faecium, UniProt Q47764); assay: Inhibition of Enterococcus faecium AAC(6')-li
[6] = Inhibition of AAC(6')-li (unknown origin)
[7] = Inhibition of AAC(6')-le (unknown origin)
[8] = system: Escherichia coli; assay: Antibacterial activity against kanamycin-resistant Escherichia coli K-12 R5 expressing AAC(6') enzyme; format: functional
[9] = system: Pseudomonas aeruginosa; assay: Antibacterial activity against kanamycin-resistant Pseudomonas aeruginosa GN315 expressing AAC(6') enzyme; format: functional
[10] = Binding affinity to AAC(6')-lb (unknown origin)

Aac(6')-Ii protein, sequence (Q47764 whole entry): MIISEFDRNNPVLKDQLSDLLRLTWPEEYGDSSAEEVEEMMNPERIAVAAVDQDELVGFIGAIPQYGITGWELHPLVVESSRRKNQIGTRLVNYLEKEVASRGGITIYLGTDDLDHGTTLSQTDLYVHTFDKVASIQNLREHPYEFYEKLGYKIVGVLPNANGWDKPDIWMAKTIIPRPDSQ

Compound: NC[C@H]1O[C@H](O[C@H]2[C@H](O)[C@@H](O)[C@H](N)C[C@@H]2N)[C@H](N)[C@@H](O)[C@@H]1O [NEAMINE]
Km [1]: 5.82 µM
kcat [1]: 0.419 s⁻¹
MIC [2]: 50 µM (≈ 16.1 µg/mL)
Kd [3]: 10 µM
kcat/Km [4]: 7.2 ×10⁴ /M/s

Ki [5]: ≥ 500 µM
Compound: CC(C)(CO)[C@@H](O)C(=O)NCCC(=O)NCCSCCCCCC(=O)NC[C@H]1O[C@H](O[C@H]2[C@H](O)[C@@H](O)[C@H](N)C[C@@H]2N)[C@H](N)[C@@H](O)[C@@H]1O

Ki [5]: ≥ 200 µM
Compound: CC(=O)CC(=O)N(Cc1ccccc1)CC(C)(C)[C@@H](O)C(=O)NCCC(=O)NCCSCC(=O)NC[C@H]1O[C@H](O[C@H]2[C@H](O)[C@@H](O)[C@H](N)C[C@@H]2N)[C@H](N)[C@@H](O)[C@@H]1O

IC50 [6]: 4.4 µM
inhibition [7]: inactive
Compound: H-ILAWKWAWWAWRR-OH

Compound: NC[C@@H]1O[C@@H](O[C@H]2[C@H](O)[C@@H](O[C@H]3O[C@H](CO)[C@@H](O)[C@H](N)[C@H]3O)[C@H](N)C[C@@H]2N)[C@@H](O)[C@H](O)[C@H]1O [KANAMYCIN A]
MIC [8]: 25 µg/mL (≈ 51.6 µM)
MIC [9]: > 100 µg/mL

Compound: CNC[C@H]1O[C@H](O[C@H]2[C@H](O)[C@@H](O[C@@H]3O[C@@H](CO)[C@H](O)[C@@H](N)[C@@H]3O)[C@H](NC(=O)[C@@H](O)CCN)C[C@@H]2N)[C@H](O)[C@@H](O)[C@@H]1O
MIC [8]: 1.56 µg/mL (≈ 2.6 µM)
MIC [9]: 25 µg/mL (≈ 41.7 µM)

Ki [5]: ≥ 200 µM
Compound: CC(=O)CC(=O)N(CCc1ccccc1)CC(C)(C)[C@@H](O)C(=O)NCCC(=O)NCCSCC(=O)NC[C@H]1O[C@H](O[C@H]2[C@H](O)[C@@H](O)[C@H](N)C[C@@H]2N)[C@H](N)[C@@H](O)[C@@H]1O

Km [1]: > 500 µM
Compound: N[C@H]1[C@@H](O[C@H]2[C@H](O)[C@@H](O)[C@H](N)C[C@@H]2N)O[C@H](CNC(=O)CO)[C@@H](O)[C@@H]1O

inhibition [6]: inactive
inhibition [7]: inactive
Compound: CC(C)C[C@H](NC(=O)[C@H](CCCNC(=N)N)NC(=O)CNC(=O)CNC(=O)[C@@H](N)CCCNC(=N)N)C(=O)N[C@@H](CS)C(=O)N[C@@H](Cc1ccc(O)cc1)C(=O)N[C@@H](CS)C(=O)N[C@@H](CCCNC(=N)N)C(=O)N[C@@H](CCCNC(=N)N)C(=O)N[C@@H](CCCNC(=N)N)C(=O)N[C@@H](Cc1ccccc1)C(=O)N[C@@H](CS)C(=O)N[C@H](C(=O)N[C@@H](CS)C(=O)N[C@H](C(=O)NCC(=O)N[C@@H](CCCNC(=N)N)C(=O)O)C(C)C)C(C)C (H-RGGRLCYCRRRFCVCVGR-OH)

Ki [6]: 0.043 µM
Compound: CC(C)(COP(=O)(O)OP(=O)(O)OC[C@H]1O[C@@H](n2cnc3c(N)ncnc32)[C@H](O)[C@@H]1OP(=O)(O)O)[C@@H](O)C(=O)NCCC(=O)NCCSCCC(=O)NC[C@H]1O[C@H](O[C@H]2[C@H](O)[C@@H](O)[C@H](N)C[C@@H]2N)[C@H](N)[C@@H](O)[C@@H]1O

Ki [6]: 0.076 µM
Compound: CC(C)(COP(=O)(O)OP(=O)(O)OC[C@H]1O[C@@H](n2cnc3c(N)ncnc32)[C@H](O)[C@@H]1OP(=O)(O)O)[C@@H](O)C(=O)NCCC(=O)NCCSCC(=O)NC[C@H]1O[C@H](O[C@H]2[C@H](O)[C@@H](O)[C@H](N)C[C@@H]2N)[C@H](N)[C@@H](O)[C@@H]1O

Ki [5]: ≥ 1000 µM
Compound: CC(C)(COC(=O)CCC(=O)O)[C@@H](O)C(=O)NCCC(=O)NCCSCC(=O)NC[C@H]1O[C@H](O[C@H]2[C@H](O)[C@@H](O)[C@H](N)C[C@@H]2N)[C@H](N)[C@@H](O)[C@@H]1O

Ki [6]: 8 µM
Compound: CC(C)(COP(=O)(O)OP(=O)(O)OC[C@H]1O[C@@H](n2cnc3c(N)ncnc32)[C@H](O)[C@@H]1OP(=O)(O)O)[C@@H](O)C(=O)NCCC(=O)NCCSCCCCC(=O)NC[C@H]1O[C@H](O[C@H]2[C@H](O)[C@@H](O)[C@H](N)C[C@@H]2N)[C@H](N)[C@@H](O)[C@@H]1O

inhibition [6]: inactive
IC50 [7]: 21 µM
Compound: CC[C@H](C)[C@H](NC(=O)[C@H](CC(C)C)NC(=O)[C@H](C)NC(=O)[C@@H]1CCCN1C(=O)[C@H](CC(C)C)NC(=O)CNC(=O)[C@@H](NC(=O)[C@@H](NC(=O)[C@H](CC(C)C)NC(=O)[C@@H](NC(=O)[C@H](CCCCN)NC(=O)[C@H](CCCCN)NC(=O)[C@@H](NC(=O)[C@H](C)NC(=O)[C@@H](NC(=O)[C@@H](NC(=O)[C@H](CC(C)C)NC(=O)[C@H](CCCCN)NC(=O)[C@H](CCCCN)NC(=O)[C@@H](NC(=O)[C@H](Cc1ccccc1)NC(=O)[C@H](CO)NC(=O)[C@H](CCCCN)NC(=O)[C@H](Cc1c[nH]c2ccccc12)NC(=O)[C@@H](N)CCCCN)[C@@H](C)CC)[C@@H](C)O)[C@@H](C)O)C(C)C)C(C)C)[C@@H](C)O)[C@@H](C)O)C(=O)N[C@@H](CO)C(=O)O

Kd [10]: 23 µM
Compound: N[C@H]1C[C@H](Oc2ccccc2[N+](=O)[O-])[C@@H](N)C1

Ki [6]: 0.161 µM
Compound: CC(C)(COP(=O)(O)OP(=O)(O)OC[C@H]1O[C@@H](n2cnc3c(N)ncnc32)[C@H](O)[C@@H]1OP(=O)(O)O)[C@@H](O)C(=O)NCCC(=O)NCCSCCCC(=O)NC[C@H]1O[C@H](O[C@H]2[C@H](O)[C@@H](O)[C@H](N)C[C@@H]2N)[C@H](N)[C@@H](O)[C@@H]1O

Ki [5]: ≥ 500 µM
Compound: CC(C)(CO)[C@@H](O)C(=O)NCCC(=O)NCCSCCC(=O)NC[C@H]1O[C@H](O[C@H]2[C@H](O)[C@@H](O)[C@H](N)C[C@@H]2N)[C@H](N)[C@@H](O)[C@@H]1O

Ki [5]: ≥ 500 µM
Compound: CC(C)(CO)[C@@H](O)C(=O)NCCC(=O)NCCSCCCC(=O)NC[C@H]1O[C@H](O[C@H]2[C@H](O)[C@@H](O)[C@H](N)C[C@@H]2N)[C@H](N)[C@@H](O)[C@@H]1O

Compound: CNC[C@@H]1CC[C@@H](N)[C@@H](O[C@H]2[C@H](O)[C@@H](O[C@@H]3O[C@@H](CO)[C@H](O)[C@@H](N)[C@@H]3O)[C@H](N)C[C@@H]2N)O1
MIC [8]: 1.56 µg/mL (≈ 3.35 µM)
MIC [9]: 12.5 µg/mL (≈ 26.9 µM)
